This test has as its system plaque biofilm grown from fresh pooled human saliva. Briefly: in vitro plaque glycolysis model (iPGRM): acid production and glycolysis inhibition after treatment of 3-day biofilm. The format is cell-based, plaque microorganisms from human saliva. As to the method:
Acid production and acid inhibition were determined with the in vitro plaque glycolysis model (iPGRM). The purpose of this technique is to provide a simple and quick method for determining if compounds have an influence on the metabolic pathways that plaque microorganisms utilize to produce toxins that adversely affect gingival health.
The in vitro plaque glycolysis model (iPGRM) is a technique in which plaque is grown from human saliva and treated with various agents to determine anti-glycolytic activity of treatments. When bacteria convert sugar into energy with the help of enzymes, acids are formed. These acids demineralize and damage the dental enamel. The purpose of this technique is to provide a simple and quick method for determining if treatment compounds have an inhibitory effect on the metabolic pathways that plaque microorganisms utilize for the production of acids or toxins and/or inhibit their growth. […]
[…] The pH of the media solutions was then measured to determine the amount of glycolysis inhibition relative to a negative control.
On Day 1, new glass rods (5 mm×90 mm) were polished approximately 25 mm from the un-tapered end on a lathe with silicon carbide paper of 240, 320, 400, and 600 grit used sequentially. […] After polishing, rods were stored until ready to run test. […]

As to `[H]/N=C(\N/C(=N/[H])NCCCCCCNC(=N)NC(=N)Nc1ccc(Cl)cc1)Nc1ccc(Cl)cc1` [1% Chlorhexidine, Chlorhexidine], the “Mean Acid Inhibition (%) Mean” value (2 min treatment (1:5 in water), glycolysis inhibition relative to negative control (Crest Cavity Protection)) worked out at 75.12%. For the same molecule, the “Acid Production (ΔpH) Mean” value (2 min treatment with dentifrice slurry or diluted treatment in water (1:5), ΔpH versus blank vials) is reported as 0.4 ΔpH.

Values taken from US20210093551A1, “Methods Of Use Of Oral Care Compositions Comprising Hops” (The Procter & Gamble Company, priority 2019, published 2021).
